One experiment has as its target T1, mouse MBLAC1 (Mus musculus, UniProt Q8BWY4).
T1 construct: expressed in transfected cells; host or cells: HEK Flp-In T-REx-293 cells, pcDNA5/FRT/TO, TET-induced, lysate
T1 sequence (Q8BWY4 1-260): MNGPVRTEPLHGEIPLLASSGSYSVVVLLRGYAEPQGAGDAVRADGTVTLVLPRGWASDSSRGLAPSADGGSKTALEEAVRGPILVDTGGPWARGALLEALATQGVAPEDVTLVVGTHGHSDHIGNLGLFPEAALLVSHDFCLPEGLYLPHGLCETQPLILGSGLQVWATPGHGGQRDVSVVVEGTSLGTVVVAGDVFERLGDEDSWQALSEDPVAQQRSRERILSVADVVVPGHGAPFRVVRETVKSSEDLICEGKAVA
Put plainly: Backscattering Interferometry (BSI) binding assay, lysates of T-REx cells expressing mouse MBLAC1. The settings on record: for BSI binding signal: TET induced vs non-induced T-REx lysates, mouse MBLAC1, 5 μM and 50 μM. From the text: Although the pulldown approach provided initial evidence of Cef interactions with MBLAC1, the efficiency of competition was lower than expected, based on prior studies reporting the in vitro potency of Cef for GLT-1 induction. It was reasoned that steric hindrance could limit high-affinity interactions of MBLAC1 with Cef-conjugated beads. As radiolabeled Cef was unavailable, a non-isotopic approach that could examine Cef/MBLAC1 interactions without ligand immobilization was sought. Backscattering interferometry is a sensitive approach that can detect both kinetic and equilibrium associations of unlabeled, small molecule interactions with unmodified target proteins (Bornhop et al., Science vol. 317, 1732-1736, 2007). […] BSI signals were eliminated by heat denaturation of extracts prior to analysis, consistent with Cef binding as arising from a proteinaceous species versus TET used to induce MBLAC1 expression.
To assess the binding of unlabeled Cef with MBLAC1 in cell and tissue lysates, BSI was utilized. A BSI instrument was assembled and employed (Kussrow et al., Anal Chem 84, 779-792, 2012). Briefly, BSI, using a semi-circular chip, a helium-neon laser, and CCD camera, allows for high-sensitivity, refractive index (RI) sensing. The RI signal is obtained by isolating shifts in the backscattered fringes by Fourier analysis. RI changes are quantified by comparing fringe shifts between test and reference samples.
Lysates for BSI contained Cef at concentrations of 0 μM, 5 μM, and 50 μM and concentrations of either 300 μg/mL (mouse cell lysates) or 100 μg/mL (human cell lysates and mouse brain lysates) protein. Samples were incubated on ice for 1 hr prior to analysis to favor equilibrium binding conditions. To obtain BSI signals, the sample with 0 μM Cef was injected into the channel in a stop-flow manner using a vacuum and allowed to reach temperature and pressure equilibrium (˜10 sec) at which point the phase value (BSI signal) was measured for 20 sec. Specific BSI signal was determined by subtracting Cef only signal from Cef-lysate signals. […]

Another experiment concerns the target T2, human MBLAC1 (Homo sapiens, UniProt A4D2B0).
T2 construct: expressed in transfected cells; host or cells: HEK Flp-In T-REx-293 cells, pcDNA5/FRT/TO, TET-induced, lysate
T2 sequence (A4D2B0 1-266): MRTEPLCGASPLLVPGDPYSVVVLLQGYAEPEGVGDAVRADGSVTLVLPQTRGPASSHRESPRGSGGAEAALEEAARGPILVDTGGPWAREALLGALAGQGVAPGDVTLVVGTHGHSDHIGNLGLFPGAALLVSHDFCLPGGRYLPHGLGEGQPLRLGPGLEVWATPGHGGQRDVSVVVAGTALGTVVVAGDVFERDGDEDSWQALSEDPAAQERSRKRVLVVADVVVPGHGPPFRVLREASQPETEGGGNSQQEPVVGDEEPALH
In words: Backscattering Interferometry (BSI) binding assay, lysates of T-REx cells expressing human MBLAC1. The settings on record: TET induced vs non-induced T-REx lysates, 5 μM and 50 μM. From the text: Although the pulldown approach provided initial evidence of Cef interactions with MBLAC1, the efficiency of competition was lower than expected, based on prior studies reporting the in vitro potency of Cef for GLT-1 induction. It was reasoned that steric hindrance could limit high-affinity interactions of MBLAC1 with Cef-conjugated beads. As radiolabeled Cef was unavailable, a non-isotopic approach that could examine Cef/MBLAC1 interactions without ligand immobilization was sought. […]
To assess the binding of unlabeled Cef with MBLAC1 in cell and tissue lysates, BSI was utilized. […] RI changes are quantified by comparing fringe shifts between test and reference samples.
Lysates for BSI contained Cef at concentrations of 0 μM, 5 μM, and 50 μM and concentrations of either 300 μg/mL (mouse cell lysates) or 100 μg/mL (human cell lysates and mouse brain lysates) protein. […] To obtain BSI signals, the sample with 0 μM Cef was injected into the channel in a stop-flow manner using a vacuum and allowed to reach temperature and pressure equilibrium (˜10 sec) at which point the phase value (BSI signal) was measured for 20 sec. Specific BSI signal was determined by subtracting Cef only signal from Cef-lysate signals. […]

For experiment [1], the target named is T3, MBLAC1 (Mus musculus, UniProt Q8BWY4).
T3 construct: from tissue; host or cells: frontal cortex of wild type C57BL/6J mice, 100,000 x g supernatant
T3 sequence (Q8BWY4 1-260): T1 sequence (Q8BWY4 1-260)
Put plainly: BSI binding assay, mouse frontal cortex lysates with and without MBLAC1 immunodepletion. The method, then:
To detect endogenous Cef binding and to determine whether MBLAC1 is likely to be responsible for observed interactions, the BSI experiments were repeated using mouse frontal cortex lysates, with and without prior heat denaturation. To determine whether, and to what degree, Cef binding signals derive from MBLAC1, BSI studies were performed on lysates that had been immunodepleted of MBLAC1 protein by anti-MBLAC1 antibody (#80). […] These findings support the contention that, under these binding conditions, MBLAC1 is likely the primary species in brain lysates capable of interacting with Cef at high-affinity—that the well-replicated actions Cef in the CNS arise through MBLAC1 interactions.
Wild type C57BL/6J mice (Jackson Labs, Bar Harbor, Me.) were rapidly decapitated and frontal cortex was dissected. […] Supernatants were collected, diluted with 2× lysis buffer (40 mM HEPES, 220 mM KCl, 20 mM NaCl, 4 mM MgCl, 10 mM KH2PO4, 500 μM ZnSO4) and protein concentration determined (BCA Protein Assay, ThermoFisher, Waltham, Mass.). […]
To assess the binding of unlabeled Cef with MBLAC1 in cell and tissue lysates, BSI was utilized. […] RI changes are quantified by comparing fringe shifts between test and reference samples. […]

Experiment [2] deals with MBLAC1 WT and MBLAC1 KO mice. Put plainly: Effect of repeated Cef on cocaine-induced locomotion (open field). Type of experiment: in vivo, mouse. The note with it: 200 mg/kg IP once daily for 10 days, cocaine 10 mg/kg 24 h later, first 30 min. How it is done:
Animals: All mice were used in accordance with protocols approved by the Florida Atlantic University Institutional Animal Care and Use Committee. Mice were group-housed on a 12 h/12 h light/dark cycle and given ad libitum access to food and water. Breeding was accomplished with mating of heterozygous males with heterozygous females. Male and female mice 11-13 weeks old at the start of the experiment were used in testing the effects of repeated ceftriaxone on response to cocaine in the open field assay. Data from males and females were combined.
Repeated ceftriaxone treatment/acute cocaine administration: MBLAC1 wild-type (WT, MBLAC1^+/+) and knockout mice (MBLAC1^−/−) were used in this experiment. Mice were injected IP once daily for 10 days with 200 mg/kg ceftriaxone (CEF) or saline. Twenty-four hours following the last CEF injection, mice were injected with 10 mg/kg cocaine or saline followed immediately by testing in open field activity chambers (Med Associates, Fairfax, Vt.) for 60 minutes. Locomotor activity was evaluated by photocells in the X, Y and Z dimensions. Horizontal beam breaks, vertical beam breaks, and repetitive movements were recorded and measures, including distance traveled, vertical rearing and stereotypic counts, were calculated. Data were analyzed in 5 min time bins within session, and for the first 30 min following cocaine injection. Data were analyzed by two-way ANOVA repeated measures, with time bin as the repeated measure, or by two-way ANOVA for 30 min cumulated data. At the end of behavior, mice were euthanized by CO2.
The methods were performed essentially as described in Tallarida et al. Neurosci Lett vol. 556, p. 155-159, 2013.

For experiment [3], the system named is MBLAC1. In words: Affinity capture of MBLAC1 with Cef-conjugated Sepharose beads, free Cef competition. The note with it: 50 μM free Cef preincubated with MBLAC1 containing extract; n=6.

Entries after “also recorded” stand apart in the source; their conditions may differ.

The record followed here is patent US20200046856A1, “METHODS FOR IDENTIFYING MBLAC1-DEPENDENT MOLECULAR NETWORKS” (Florida Atlantic University Board of Trustees, priority 2018, published 2020).

By Kd is commonly meant the constant that tells how readily two partners part at equilibrium.

`CO/N=C(\C(=O)N[C@@H]1C(=O)N2C(C(=O)O)=C(CSc3nc(=O)c(=O)[nH]n3C)CS[C@H]12)c1csc(N)n1` [Cef, ceftriaxone]: the BSI binding signal result is “significant, dose-dependent BSI signals were detected only in induced cell lysates; also recorded: concentration-dependent, heat-sensitive BSI binding signals” on mouse MBLAC1 and “significant, dose-dependent BSI signals were detected only in induced cell lysates; also recorded: concentration-dependent, heat-sensitive BSI binding signals” at human MBLAC1. In addition, the dissociation constant (Kd) on mouse MBLAC1 (lysate from mouse MBLAC1 expressing cells, Cef 0.78 μM to 50 μM, r2=0.96, read-out: KD for binding (single site binding equation fit to BSI data)) was 2.2 µM. Further, the “BSI binding signal in MBLAC1-immunodepleted mouse frontal cortex lysate” value on MBLAC1 [1] (immunodepleted with MBLAC1 antibody #80) is “the Cef binding signal was abolished; also recorded: eliminated Cef binding activity”. In addition, the “BSI binding signal in mouse frontal cortex lysate” value on MBLAC1 [1] (non-depleted lysate, 5 μM and 50 μM) is “shows binding signal with Cef”. Besides, the “Effect of Cef pretreatment on cocaine-induced locomotion in MBLAC1 KO mice” value in experiment [2] is “no ability to attenuate cocaine actions”; in experiment [2] (listed as CEF), “had no effect on the response to cocaine”. Moreover, the “Effect of Cef pretreatment on cocaine-induced locomotion in MBLAC1 WT mice” value in experiment [2] is reported as “the locomotor activating effects of cocaine were lost”; in experiment [2] (listed as CEF) it was “completely blocked the effects of cocaine”. The “Mean reduction in MBLAC1 binding to immobilized Cef” value in the experiment on MBLAC1 [3] was determined as 52.4±9.3%.
Take `CC(=O)OCC1=C(C(=O)O)N2C(=O)[C@@H](NC(=O)CCC[C@@H](N)C(=O)O)[C@H]2SC1` [CephC, cephalosporin C]: on mouse MBLAC1, the BSI binding signal entry is on record as “a significant CephC BSI signal (FIG. 3D) was not seen; also recorded: non-significant reduction in BSI signal”.
